Measurements taken from US7635779B2, “Oxy substituted flavones as antihyperglycemic and antidyslipidemic agents” (Council of Scientific & Industrial Research, priority 2004, dated 2009).

What was measured:
Assay type in all cases: in vivo, mouse
Swiss mice [1] = assay: Gross behaviour: motor responses (SMA, gait, posture); set-up: key to SMA Score: scale 0-9; control group SMA = 4; settings: for Effect on motor responses: 100 mg/kg; for SMA Score: 100 mg/kg p.o., control score 4
Description: 34 and 49 (100 mg/kg, p.o.) was administered in forenoon.
The gross behavioral parameters were observed as follows (based on Irwin protocol):
• i). Spontaneous motor activity [SMA]: Scored on a scale of 0-9 in which SMA in control group was assigned score 4. • ii). Posture/Position: Normal upright posture (+: present or −: absent) • iii). Gait: The mouse is allowed to move on the edge of the cage for 1 min and straight movements without fall or staggering is considered as normal. The gait is recorded as normal or abnormal; if abnormal description is provided. • iv). Ataxia: Any in-coordination in movements occurring in absence of involuntary movements. (+: present or −: absent) • v). Tremor: Involuntary movements (jerking of entire body or limbs) due to alternating contraction of muscles. (+: present or −: absent) • vi). Convulsions: Alternate contraction (flexion) and extension [clonic], or sustained extension [tonic] of limbs resulting into loss of upright posture (+: present or −: absent). • vii). Straub's tail: A sustained (>30 sec) raising of tail (making an angle >60° with the body) (+: present or −: absent) • viii). Catalepsy: A condition in which body or limbs remain passively in any position in which they are placed. It is tested by the placing forepaws on a metallic rod placed at height of 6 cm and if forepaws are not withdrawn within 10 sec catalepsy is considered to be positive (+: present or −: absent). • ix). Abnormal (Bizarre) behaviour: Stereotypy, head shaking, head searching, upright walking, and circling (+: present or −: absent). Results

Swiss mice [2] = assay: Maximal electroshock seizures (MES); settings: 100 mg/kg p.o.; for Numbers of mice showed seizures/numbers of mice tested: 48 mAmp for 0.2 sec
Description: Control and treated mice (−60 min) were subjected to electric shock (48 mAmp for 0.2 sec) through pinna electrode.

Swiss mice [3] = assay: Barbiturate induced hypnosis (sleeping time); settings: for Change in barbiturate induced hypnosis: 100 mg/kg p.o.; for Sleep-duration (MEAN ± SE): 100 mg/kg p.o. 30 min prior to Pentobarbitone 45 mg/kg i.p.
Description: Sleeping time is calculated by the duration between loss and regain of righting reflex following administration of Pentobarbitone (45 mg/kg, i.p.). 34 and 49 in the dose 100 mg/kg, p.o. was administered 30 min prior to Pentobarbitone.

Swiss mice [4] = assay: Neuromuscular coordination (muscle tone, rota rod test); set-up: key to Muscle tone score (hind limb rigidity): 0=Flaccid; 1=Normal; 2=Rigid; settings: for Effect on neuromuscular coordination as compared to control / Rota rod test-numbers of falls / Rota rod test-stay period at 1 h (MEAN ± SE): 100 mg/kg p.o.; for Rota rod test-stay period at 1 h (MEAN ± SE): test duration 2 min; for Muscle tone score (hind limb rigidity): resistance to passive flexion of hind-paw
Description: By resistance to passive flexion of each hind-paw
Score: 0=Flaccid, 1=Normal, 2=Rigid, • ii). Rota Rod Test
The period of stay on rotating rod (speed: 5 rotations/min; total duration of test 2 min) for each control and treated mice (−60 min) was recorded by Rotamex 4 (Columbus Instr., USA). The mice were trained to stay for period of 2 min on rotating rod and only trained mice were included in the study.

Swiss mice [5] = assay: Gross behaviour: autonomic responses; settings: 100 mg/kg p.o.
Description: 34 and 49 (100 mg/kg, p.o.) was administered in forenoon. […] Piloerection: Erection of body hairs (+: present or −: absent). • ii). Salivation: Secretion of saliva is observed as dripping of saliva from mouth, which is scored as 1=mild, 2=moderate and 3=severe as compared to control (0=no dripping). • iii). Lachrymation: Secretion and discharge of tears observed as shedding of tears around the lower eyelid, which is scored as 1=mild, 2=moderate and 3=severe as compared to control (0=no shedding). • iv). Palpebral closure: Ptosis (drooping of upper eyelids) present or absent • v). Exopthalmos: Protrusion (bulging) of eye ball; present or absent • vi). Defaecation: scored as 1=mild, 2=moderate and 3=severe as compared to control • vii). Urination: scored as 1=mild, 2=moderate and 3=severe as compared to control Results

Swiss mice [6] = assay: Gross behaviour: sensory responses (reflexes, hot plate nociceptive response); settings: 100 mg/kg p.o.; for Nociceptive reaction time MEAN ± SE: hot plate 55° C.
Description: • i). Reflexes: Pinna, corneal and righting reflexes were tested [Normal (control), sluggish or absent] • ii). Nociceptive Response: Reaction time to nociceptive response was observed by hot plate analgesia meter (Columbus Instruments,USA). The cut-off period for thermal nociception (55° C.) to mice was 15 sec. Results • i). Reflexes: Corneal, pinna and righting reflexes were intact in 34 and 49 treated mice. • ii).

Row | Compound | Effect on motor responses (Swiss mice [1]) | SMA Score (Swiss mice [1]; 0 min) | SMA Score (Swiss mice [1]; 30 min) | SMA Score (Swiss mice [1]; 60 min) | SMA Score (Swiss mice [1]; 90 min) | SMA Score (Swiss mice [1]; 120 min) | SMA Score (Swiss mice [1]; 150 min) | SMA Score (Swiss mice [1]; 180 min) | Anti-convulsant activity (Swiss mice [2]) | Numbers of mice showed seizures/numbers of mice tested (Swiss mice [2]) | Change in barbiturate induced hypnosis (Swiss mice [3]) | Sleep-duration (MEAN ± SE) (Swiss mice [3]) [min] | Effect on neuromuscular coordination as compared to control (Swiss mice [4]) | Rota rod test-numbers of falls (Swiss mice [4]; 30 min) | Rota rod test-numbers of falls (Swiss mice [4]; 60 min) | Rota rod test-stay period at 1 h (MEAN ± SE) (Swiss mice [4]) [s] | Rota rod test-numbers of falls (Swiss mice [4]; 90 min) | Rota rod test-numbers of falls (Swiss mice [4]; 180 min) | Rota rod test-numbers of falls (Swiss mice [4]; Pre-tt (0)) | Muscle tone score (hind limb rigidity) (Swiss mice [4]) | also measured
1 | CC(C)(C)NCC(O)COc1ccc2c(=O)cc(-c3cc(OCc4ccccc4)cc(OCc4ccccc4)c3)oc2c1 (stereo not shown) [Compound 34, 7-(3-tert-Butylamino-2-hydroxy-propoxy)-3′,5′-dibenzyloxy-flavone] | did not show any significant effect | 4 | 4 | 4 | 4 | 4 | 4 | 4 | did not show any significant anti-convulsant activity | 5/5 | did not show any significant change | 122.5 ± 16.7 | did not show any significant effect | 0 | 1/8 | 111.87 ± 8.82 | 0 | 0 | 0 | 1 | Effect on autonomic responses (Swiss mice [5]): did not show any significant effect; Corneal, pinna and righting reflexes (Swiss mice [6]): intact; Effect on nociceptive reaction time as compared to control (Swiss mice [6]): no significant effect; Sensory responses (Swiss mice [6]): not affected; Nociceptive reaction time MEAN ± SE (Swiss mice [6]; 30 min): 4.84 ± 0.3 s; Nociceptive reaction time MEAN ± SE (Swiss mice [6]; 60 min): 4.30 ± 0.2 s; Nociceptive reaction time MEAN ± SE (Swiss mice [6]; 90 min): 3.52 ± 0.1 s; Nociceptive reaction time MEAN ± SE (Swiss mice [6]; 120 min): 3.08 ± 0.2 s; Nociceptive reaction time MEAN ± SE (Swiss mice [6]; Pre-tt (0)): 3.52 ± 0.2 s
2 | CC(C)NCC(O)COc1ccc2c(=O)cc(-c3cc(O)cc(O)c3)oc2c1 (stereo not shown) [Compound 49, 3′,5′-Dihydroxy-7-(2-hydroxy-3-iso-propylamino-propoxy)-flavone] | did not show any significant effect | 4 | 4 | 4 | 4 | 4 | 4 | 4 | did not show any significant anti-convulsant activity | 5/5 | did not show any significant change | 103.4 ± 15.27 | did not show any significant effect | 0 | 1/8 | 112.25 ± 7.75 | 0 | 0 | 0 | 1 | Effect on autonomic responses (Swiss mice [5]): did not show any significant effect; Corneal, pinna and righting reflexes (Swiss mice [6]): intact; Effect on nociceptive reaction time as compared to control (Swiss mice [6]): no significant effect; Sensory responses (Swiss mice [6]): not affected; Nociceptive reaction time MEAN ± SE (Swiss mice [6]; 30 min): 4.66 ± 0.6 s; Nociceptive reaction time MEAN ± SE (Swiss mice [6]; 60 min): 4.10 ± 0.2 s; Nociceptive reaction time MEAN ± SE (Swiss mice [6]; 90 min): 3.66 ± 0.3 s; Nociceptive reaction time MEAN ± SE (Swiss mice [6]; 120 min): 3.45 ± 0.1 s; Nociceptive reaction time MEAN ± SE (Swiss mice [6]; Pre-tt (0)): 4.61 ± 0.2 s
